How the values were obtained:
Human Mer = molecular target: T1, Human Mer (Homo sapiens, UniProt Q12866); experiment: Human Mer kinase assay (33P-phosphoryl transfer radiometric, KinaseProfiler); details: biochemical activity; 10 μM ATP
T1 construct: Human Mer (residues R557-E882 with H628Q and R794A, 0.7 nM); purchased Eurofins Pharma Discovery Services UK Limited (KinaseProfiler service)
T1 sequence (Q12866 557-882 limits assumed): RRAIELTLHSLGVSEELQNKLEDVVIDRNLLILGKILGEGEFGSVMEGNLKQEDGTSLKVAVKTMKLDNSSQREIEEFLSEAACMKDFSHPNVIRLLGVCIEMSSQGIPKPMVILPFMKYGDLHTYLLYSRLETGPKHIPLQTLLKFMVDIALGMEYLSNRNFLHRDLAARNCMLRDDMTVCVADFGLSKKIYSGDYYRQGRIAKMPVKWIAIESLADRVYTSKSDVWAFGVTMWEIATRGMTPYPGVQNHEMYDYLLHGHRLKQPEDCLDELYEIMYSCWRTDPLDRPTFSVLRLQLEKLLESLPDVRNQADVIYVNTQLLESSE
Protocol: Kinase activity and compound inhibition were investigated using the ^33P-Phosphoryl transfer radiometric kinase assay, performed using the KinaseProfiler™ service of Eurofins Pharma Discovery Services UK Limited. Dose-response experiments were performed using nine compound concentrations in a 96-well microtiter plate. For each assay, all compounds were prepared to a 50× final assay concentration (50 μM) in 100% DMSO, then diluted in a half-log series, with the final top concentration at 1 μM. This working stock of the compound was added to the assay well as the first component in the reaction, followed by the remaining components as detailed in the following assay protocols below. The positive control wells (100% kinase activity) contain all components of the reaction including 2% DMSO (control for solvent effects), except the compound of interest. Blank wells contain all components of the reaction, with the reference inhibitor, staurosporine. This reference compound was used to abolish kinase activity and generated the 0% kinase activity base-line. IC50 values were calculated by nonlinear regression analysis using the sigmoidal dose-response (variable slope) curve fit on XLFit version 5.3 (ID Business Solutions).
Human Mer (residues R557-E882 with H628Q and R794A, 0.7 nM) was incubated with 8 mM MOPS pH 7.0, 0.2 mM EDTA, 30 mM NaCl, 250 μM GGMEDIYFEFMGGKKK, 10 mM magnesium acetate and 10 μM [y-^33P-ATP]. The reaction was initiated by the addition of the Mg/ATP mix. After incubation for 40 minutes at room temperature, the reaction was stopped by the addition of phosphoric acid to a concentration of 0.5%. A reaction aliquot of 10 μL was then spotted onto a P30 filtermat and washed four times for 4 minutes in 0.425% phosphoric acid and once in methanol prior to drying and scintillation counting. Incorporated ^33P was measured using the Wallac Microbeta scintillation counter (Perkin Elmer).

AXL = molecular target: T2, AXL (Homo sapiens, UniProt P30530); experiment: AXL autophosphorylation ELISA in A-172 cells; assay type: cell-based; details: cellular activity, Gas6-stimulated, phospho-AXL ELISA
T2 construct: endogenous in cells; host or cells: A-172 glioblastoma cells (ATCC #CRL-1620)
T2 sequence (P30530 26-894): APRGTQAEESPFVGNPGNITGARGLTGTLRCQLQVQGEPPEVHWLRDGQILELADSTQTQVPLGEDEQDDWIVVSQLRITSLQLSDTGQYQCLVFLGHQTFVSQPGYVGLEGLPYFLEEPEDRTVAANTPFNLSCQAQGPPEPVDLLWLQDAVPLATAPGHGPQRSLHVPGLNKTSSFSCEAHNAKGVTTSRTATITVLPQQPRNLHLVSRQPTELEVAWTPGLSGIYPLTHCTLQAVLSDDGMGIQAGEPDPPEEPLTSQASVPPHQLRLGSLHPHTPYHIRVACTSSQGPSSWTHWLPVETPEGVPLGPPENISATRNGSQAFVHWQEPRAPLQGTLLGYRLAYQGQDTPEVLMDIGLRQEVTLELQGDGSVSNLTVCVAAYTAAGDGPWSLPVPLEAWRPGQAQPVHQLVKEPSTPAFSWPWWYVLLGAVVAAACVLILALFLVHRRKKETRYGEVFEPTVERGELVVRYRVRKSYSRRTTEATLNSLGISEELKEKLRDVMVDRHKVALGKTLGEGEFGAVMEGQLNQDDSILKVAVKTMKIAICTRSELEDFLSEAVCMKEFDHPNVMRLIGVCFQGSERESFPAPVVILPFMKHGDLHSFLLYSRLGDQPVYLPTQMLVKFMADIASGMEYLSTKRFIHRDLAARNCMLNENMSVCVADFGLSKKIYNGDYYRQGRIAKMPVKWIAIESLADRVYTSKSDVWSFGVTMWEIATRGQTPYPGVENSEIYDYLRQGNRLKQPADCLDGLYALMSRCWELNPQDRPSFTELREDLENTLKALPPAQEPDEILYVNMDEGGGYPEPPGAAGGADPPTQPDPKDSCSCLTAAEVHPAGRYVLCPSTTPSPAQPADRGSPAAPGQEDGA
Summary of the method: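 Serum-starved (24 h) A-172 glioblastoma cells got an 8-point compound series (0.3% DMSO) for 1 h, then 1 μg/mL human Gas6 for 15 min. Lysate phospho-AXL quantified by ELISA against phospho-AXL standard, normalized to DMSO and reference-inhibitor controls; IC50 by 4-parameter logistic fit.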

Row | SMILES | IC50 (Human Mer) | IC50 (AXL)
1 | CNC(=O)c1cc2c(Oc3ccc(NC(=O)C4(C(=O)Nc5ccc(F)cc5)CC4)cc3)ccnc2cc1-c1cnn(C)c1 [Compound 77, 1-N′-(4-Fluorophenyl)-1-N-[4-[6-(methylcarbamoyl)-7-(1-methylpyrazol-4-yl)quinolin-4-yl]oxyphenyl]cyclopropane-1,1-dicarboxamide] | ≤ 10 nM | 10 to 100 nM
2 | O=C(Nc1ccc(F)cc1)C1(C(=O)Nc2ccc(Oc3ccnc4cc(-c5cnn(CC(F)F)c5)ccc34)cc2)CC1 [Compound 15, 1-N-[4-[7-[1-(2,2-Difluoroethyl)pyrazol-4-yl]quinolin-4-yl]oxyphenyl]-1-N′-(4-fluorophenyl)cyclopropane-1,1-dicarboxamide] | ≤ 10 nM | ≤ 10 nM
3 | O=C(Nc1ccc(F)cc1)C1(C(=O)Nc2ccc(Oc3ccnc4cc(-c5cnn(C(F)(F)F)c5)ccc34)cc2)CC1 [Compound 12, 1-N′-(4-Fluorophenyl)-1-N-[4-[7-[1-(trifluoromethyl)pyrazol-4-yl]quinolin-4-yl]oxyphenyl]cyclopropane-1,1-dicarboxamide] | ≤ 10 nM | 10 to 100 nM
4 | CN1CCC(n2cc(-c3ccc4c(Oc5ccc(NC(=O)C6(C(=O)Nc7ccc(F)cc7)CC6)cc5)ccnc4c3)cn2)CC1 [Compound 61, 1-N′-(4-Fluorophenyl)-1-N-[4-[7-[1-(1-methylpiperidin-4-yl)pyrazol-4-yl]quinolin-4-yl]oxyphenyl]cyclopropane-1,1-dicarboxamide] | ≤ 10 nM | ≤ 10 nM
5 | Cc1noc(C)c1-c1ccc2c(Oc3ccc(NC(=O)C4(C(=O)Nc5ccc(F)cc5)CC4)cc3)ccnc2c1 [Compound 53, 1-N-[4-[7-(3,5-Dimethyl-1,2-oxazol-4-yl)quinolin-4-yl]oxyphenyl]-1-N′-(4-fluorophenyl)cyclopropane-1,1-dicarboxamide] | 10 to 100 nM | 100 to 300 nM
6 | Cc1cc(F)cc(C)c1NC(=O)C1(C(=O)Nc2ccc(Oc3ccnc4cc(-c5cnn(C)c5)ccc34)cc2)CC1 [Compound 82, 1-N′-(4-Fluoro-2,6-dimethylphenyl)-1-N-[4-[7-(1-methylpyrazol-4-yl)quinolin-4-yl]oxyphenyl]cyclopropane-1,1-dicarboxamide] | ≤ 10 nM | 10 to 100 nM

Next, values leading:

Row | IC50 (Human Mer) | IC50 (AXL) | SMILES
7 | ≤ 10 nM | 10 to 100 nM | O=C(Nc1ccc(F)cc1)C1(C(=O)Nc2ccc(Oc3ccnc4cc(-c5cncnc5)ccc34)cc2)CC1 [Compound 27, 1-N′-(4-Fluorophenyl)-1-N-[4-(7-pyrimidin-5-ylquinolin-4-yl)oxyphenyl]cyclopropane-1,1-dicarboxamide]
8 | ≤ 10 nM | 10 to 100 nM | Cn1ccc(-c2ccc3c(Oc4ccc(NC(=O)C5(C(=O)Nc6ccc(F)cc6)CC5)cc4)ccnc3c2)n1 [Compound 17, 1-N′-(4-Fluorophenyl)-1-N-[4-[7-(1-methylpyrazol-3-yl)quinolin-4-yl]oxyphenyl]cyclopropane-1,1-dicarboxamide]
9 | ≤ 10 nM | 10 to 100 nM | O=C(Nc1ccc(F)cc1)C1(C(=O)Nc2ccc(Oc3ccnc4cc(-c5cnn(C6CC6)c5)ccc34)cc2)CC1 [Compound 22, 1-N-[4-[7-(1-Cyclopropylpyrazol-4-yl)quinolin-4-yl]oxyphenyl]-1-N′-(4-fluorophenyl)cyclopropane-1,1-dicarboxamide]

Source: US12503438B2, “Compounds for the treatment of kinase-dependent disorders” (Exelixis, Inc., priority 2019, dated 2025)
